Tests used:
human MMP 9 = human MMP 9 (Homo sapiens, UniProt P14780); test: Ki determination with fluorogenic substrate MCA-Mat, human MMP9; format: biochemical; settings: recombinant MMP 9 h at 0.05 nM, 100 μL, MCA-Mat 15 μM
Procedure: (§1) The inhibition constants Ki of compounds P1, P2, and P3 were determined in comparison to human MMPs 2, 3, 8, 9, 12, 13, 14 and to murine MMP12. Recombinant proteases were used in volumes of 100 μL at concentrations of 0.05, 0.3, 0.03, 0.05, 0.03, 0.015, and 0.5 nM respectively for human MMPs 2, 3, 8, 9, 12, 13, 14, and at a concentration of 0.1 nM for murine MMP12. […] Recall that the lower the Ki of a compound, the greater its potential for inhibiting the chosen target.

murine MMP12 = murine MMP12 (Mus musculus, UniProt P34960); test: Ki determination with fluorogenic substrate MCA-Mat, murine MMP12; format: biochemical; settings: recombinant MMP 12 m at 0.1 nM, 100 μL, MCA-Mat 15 μM
Procedure: as §1

human MMP 3 = human MMP 3 (Homo sapiens, UniProt P08254); test: Ki determination with fluorogenic substrate MCA-Mat, human MMP3; format: biochemical; settings: recombinant MMP 3 h at 0.3 nM, 100 μL, MCA-Mat 15 μM
Procedure: as §1

human MMP 14 = human MMP 14 (Homo sapiens, UniProt P50281); test: Ki determination with fluorogenic substrate MCA-Mat, human MMP14; format: biochemical; settings: recombinant MMP 14 h at 0.5 nM, 100 μL, MCA-Mat 15 μM
Procedure: as §1

human MMP 8 = human MMP 8 (Homo sapiens, UniProt P22894); test: Ki determination with fluorogenic substrate MCA-Mat, human MMP8; format: biochemical; settings: recombinant MMP 8 h at 0.03 nM, 100 μL, MCA-Mat 15 μM
Procedure: as §1

human MMP 2 = biological target: T1, human MMP 2 (Homo sapiens, UniProt P08253); test: Ki determination with fluorogenic substrate MCA-Mat, human MMP2; format: biochemical; settings: recombinant MMP 2 h at 0.05 nM, 100 μL, MCA-Mat 15 μM
T1 sequence (P08253 110-660): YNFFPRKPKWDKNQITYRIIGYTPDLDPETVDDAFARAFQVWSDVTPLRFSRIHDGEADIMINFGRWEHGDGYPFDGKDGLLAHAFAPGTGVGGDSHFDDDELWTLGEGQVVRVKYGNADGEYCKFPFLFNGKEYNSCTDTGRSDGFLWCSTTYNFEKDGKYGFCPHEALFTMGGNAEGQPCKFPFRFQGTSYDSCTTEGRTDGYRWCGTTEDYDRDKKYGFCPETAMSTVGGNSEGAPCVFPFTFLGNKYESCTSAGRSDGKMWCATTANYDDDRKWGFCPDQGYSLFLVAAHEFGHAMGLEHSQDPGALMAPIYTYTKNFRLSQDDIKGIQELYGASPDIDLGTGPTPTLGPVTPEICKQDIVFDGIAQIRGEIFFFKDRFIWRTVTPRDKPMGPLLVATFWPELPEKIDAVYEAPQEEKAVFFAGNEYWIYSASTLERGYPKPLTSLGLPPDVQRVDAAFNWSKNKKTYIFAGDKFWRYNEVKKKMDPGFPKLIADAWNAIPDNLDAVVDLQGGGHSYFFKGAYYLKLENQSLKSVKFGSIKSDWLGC
Procedure: as §1

human MMP 13 = human MMP 13 (Homo sapiens, UniProt P45452); test: Ki determination with fluorogenic substrate MCA-Mat, human MMP13; format: biochemical; settings: recombinant MMP 13 h at 0.015 nM, 100 μL, MCA-Mat 15 μM
Procedure: as §1

human MMP 12 = human MMP 12 (Homo sapiens, UniProt P39900); test: Ki determination with fluorogenic substrate MCA-Mat, human MMP12; format: biochemical; settings: recombinant MMP 12 h at 0.03 nM, 100 μL, MCA-Mat 15 μM
Procedure: as §1

MMP12h = MMP12h (Homo sapiens, UniProt P39900); settings: read-out: Ki with respect to MMP12h; competitor used in strip and EIA tests; described in Devel et al, 2006; cited from earlier work
Sequence of MMP12h (P39900 106-470): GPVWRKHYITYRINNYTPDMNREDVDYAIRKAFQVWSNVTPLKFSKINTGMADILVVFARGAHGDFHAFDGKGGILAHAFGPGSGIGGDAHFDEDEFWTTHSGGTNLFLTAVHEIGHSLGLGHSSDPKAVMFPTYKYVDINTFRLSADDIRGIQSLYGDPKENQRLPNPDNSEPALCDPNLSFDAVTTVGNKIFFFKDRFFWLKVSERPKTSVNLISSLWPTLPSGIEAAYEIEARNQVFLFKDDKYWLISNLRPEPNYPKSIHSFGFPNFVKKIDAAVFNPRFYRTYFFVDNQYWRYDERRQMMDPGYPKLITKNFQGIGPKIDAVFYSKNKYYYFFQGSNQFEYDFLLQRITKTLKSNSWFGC

Sequence of human MMP 8 (P22894 101-467): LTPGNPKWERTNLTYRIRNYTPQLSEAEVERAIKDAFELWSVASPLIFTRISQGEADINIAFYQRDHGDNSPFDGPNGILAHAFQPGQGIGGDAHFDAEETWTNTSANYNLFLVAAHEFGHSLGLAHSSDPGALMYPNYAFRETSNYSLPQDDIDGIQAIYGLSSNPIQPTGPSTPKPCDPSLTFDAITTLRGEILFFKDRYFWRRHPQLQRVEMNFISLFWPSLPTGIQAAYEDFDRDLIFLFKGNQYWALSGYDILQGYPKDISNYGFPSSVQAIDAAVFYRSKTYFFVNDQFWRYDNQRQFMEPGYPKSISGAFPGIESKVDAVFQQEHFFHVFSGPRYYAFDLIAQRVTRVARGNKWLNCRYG
Sequence of human MMP 12 (P39900 106-470): as the sequence (P39900 106-470) above
Sequence of murine MMP12 (P34960 110-473): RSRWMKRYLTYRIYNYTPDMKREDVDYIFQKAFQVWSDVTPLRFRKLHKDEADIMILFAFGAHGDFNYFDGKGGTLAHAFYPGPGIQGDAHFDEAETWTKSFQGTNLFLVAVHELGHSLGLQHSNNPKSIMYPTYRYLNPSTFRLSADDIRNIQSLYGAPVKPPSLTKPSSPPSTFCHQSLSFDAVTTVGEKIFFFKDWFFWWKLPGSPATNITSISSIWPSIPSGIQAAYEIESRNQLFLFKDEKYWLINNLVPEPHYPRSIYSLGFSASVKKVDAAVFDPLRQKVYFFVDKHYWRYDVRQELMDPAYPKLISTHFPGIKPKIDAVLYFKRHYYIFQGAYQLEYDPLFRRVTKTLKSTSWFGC
Sequence of human MMP 3 (P08254 100-477): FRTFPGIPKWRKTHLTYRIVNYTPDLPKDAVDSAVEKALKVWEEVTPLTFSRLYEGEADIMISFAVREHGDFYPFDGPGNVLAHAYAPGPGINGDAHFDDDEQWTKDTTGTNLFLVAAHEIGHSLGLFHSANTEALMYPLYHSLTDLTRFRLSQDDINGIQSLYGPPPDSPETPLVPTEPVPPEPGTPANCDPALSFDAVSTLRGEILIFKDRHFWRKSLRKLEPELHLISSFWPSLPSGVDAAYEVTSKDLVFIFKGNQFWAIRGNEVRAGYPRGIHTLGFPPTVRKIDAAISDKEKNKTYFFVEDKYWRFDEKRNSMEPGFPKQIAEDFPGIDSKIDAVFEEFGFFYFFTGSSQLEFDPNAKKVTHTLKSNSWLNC
Sequence of human MMP 9 (P14780 94-707): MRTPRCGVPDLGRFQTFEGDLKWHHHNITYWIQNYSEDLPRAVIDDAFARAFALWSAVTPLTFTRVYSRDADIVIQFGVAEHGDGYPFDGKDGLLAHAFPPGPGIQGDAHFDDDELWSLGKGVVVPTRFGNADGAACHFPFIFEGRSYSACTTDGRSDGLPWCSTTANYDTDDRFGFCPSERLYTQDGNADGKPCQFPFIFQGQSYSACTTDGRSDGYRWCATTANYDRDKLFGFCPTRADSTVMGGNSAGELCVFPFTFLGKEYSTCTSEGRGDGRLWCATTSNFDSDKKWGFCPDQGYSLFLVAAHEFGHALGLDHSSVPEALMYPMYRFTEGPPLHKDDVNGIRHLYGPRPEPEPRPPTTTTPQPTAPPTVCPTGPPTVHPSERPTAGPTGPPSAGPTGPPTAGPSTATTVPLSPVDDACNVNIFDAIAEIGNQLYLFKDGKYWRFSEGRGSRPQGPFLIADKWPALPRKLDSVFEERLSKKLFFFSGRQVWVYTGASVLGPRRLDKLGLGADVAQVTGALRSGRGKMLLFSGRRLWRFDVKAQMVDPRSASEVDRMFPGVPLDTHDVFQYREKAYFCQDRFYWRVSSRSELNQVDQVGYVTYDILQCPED

Row | SMILES | Ki (human MMP 9) | Ki (murine MMP12) | Ki (human MMP 3) | Ki (human MMP 14) | Ki (human MMP 8) | Ki (human MMP 2) | Ki (human MMP 13) | Ki (human MMP 12) | Ki (MMP12h)
1 | CC(=O)SCC(=O)NCCOCCOCCOCCOCCOCCOCCOCCOCCOCCOCCOCCOCCOCCOCCOCCOCCOCCOCCOCOCCOCCOCCOCCOCCOCCOCCOCCOCCC(=O)NCCCOCCOCCOCCCNC(=O)CNC(=O)[C@H](C)NC(=O)[C@H](Cc1ccc(O)cc1)NC(=O)C(Cc1cc(-c2ccc(-c3cccc(Cl)c3)cc2)no1)CP(=O)(O)[C@H](Cc1ccccc1)NC(=O)[C@H](C)NC(=O)[C@@H]1CCCN1C(C)=O (stereo partly shown) [Ligand P1] | 0.28 nM | 0.08 nM | 0.75 nM | 0.53 nM | 0.09 nM | 0.12 nM | 0.017 nM | 0.03 nM | –
2 | CCC(=O)NOCCOCCOCCOCCOCCOCCOCCOCCOCCOCCOCCOCCOCOCCOCCOCCOCCOCCOCCOCCOCCOCCOCCOCCOCCOCCOCCOCCC(=O)N1CCC[C@H]1C(=O)N[C@@H](C)C(=O)N[C@@H](Cc1ccccc1)P(=O)(O)CC(Cc1cc(-c2ccc(-c3cccc(Cl)c3)cc2)no1)C(=O)N[C@@H](Cc1ccc(O)cc1)C(=O)N[C@@H](C)C(=O)NCC(=O)NCCCOCCOCCOCCCNC(=O)CCCCC1SCC2NC(=O)NC21 (stereo partly shown) [Ligand P3] | 0.73 nM | 0.66 nM | 1.55 nM | 1.82 nM | 0.47 nM | 0.3 nM | 0.07 nM | 0.26 nM | –
3 | CC(=O)N1CCC[C@H]1C(=O)N[C@@H](C)C(=O)N[C@@H](Cc1ccccc1)P(=O)(O)CC(Cc1cc(-c2ccc(-c3cccc(Cl)c3)cc2)no1)C(=O)N[C@@H](Cc1ccc(O)cc1)C(=O)N[C@@H](C)C(=O)NCC(=O)NCCCOCCOCCOCCCNC(=O)CCOCCOCCOCCOCCOCCOCCOCCOCCOCOCCOCCOCCOCCOCCOCCOCCOCCOCCOCCOCCOCCOCCOCCOCCNC(=O)CCCN1C(=O)C=CC1=O (stereo partly shown) [Ligand P2] | 0.48 nM | 0.09 nM | 1 nM | 0.7 nM | 0.12 nM | 0.15 nM | 0.03 nM | 0.05 nM | –
4 | NC(=O)C(CCC(=O)O)NC(=O)C(CCC(=O)O)NC(=O)C(Cc1cc(-c2ccc(-c3cccc(Cl)c3)cc2)no1)CP(=O)(O)c1ccc(Br)cc1 (stereo not shown) [RXP470.1] | – | – | – | – | – | – | – | – | 0.2 nM
